Structures can show the parent of a compound that is named as a salt.
Legend:
[1] = system: C-4 cells; experiment: Cytotoxicity assay, C-4 (FIG. 8); assay type: cell-based, human; conditions: 3 day incubation
Method: The IC50s for the SK0V3 and C-4 cells were 4.0 μM and 0.02 μM respectively. Both cell lines were obtained from the ATCC and grown using standard growth techniques and medium as described above. The IC50s were determined through standard cytoxicity assays described above, with each well containing approximately 10^4 cells.

[2] = system: P388 tumors; experiment: Murine P388 model in BDF1 mice; assay type: in vivo
Method: (§1) Antitumor studies on mice focussed, in one case, on the P388 leukaemia model. […] This is an ascitic tumor model that was generated by intraperitoneal inoculation of 1×10^6 P388 cells (derived from culture, with an original cell line obtained from the NCI tumor repository) in BDF1 mice (Charles Rivers). One day after tumor cell inoculation, mice were treated with a single intravenous injection of drug. Animal weight was monitored daily and tumor progression was measured as an increase in animal weight and through estimation of survival time. Therapy was described by a decrease in tumor progression and an increase in survival time relative to an untreated control group. Initial studies established the maximum therapeutic dose for AHVB. Subsequently comparative studies with vincristine and Navelbine™ were initiated where animals were treated with each drug at the maximum therapeutic dose.
(§2) The in vivo anti-tumor activity of AHVB was compared to that of vincristine, Navelbine™ in the BDF1-murine P388 model in the procedure as follows. P388 cells were derived from the ascities of previously injected female BDF1 mice (19-21 grams) P388 cells, from the NCI tumor repository were inoculated directly into mice. The cells arrive from NCI frozen in 1 ml aliquots. These samples were thawed rapidly at 37° C. and subsequently injected (within 1 hour) intraperitoneally into two mice, 0.5 ml per mouse. One week (7 days) after inoculation, the tumor cells were harvested by removing peritoneal fluid using a sterile syringe with a 22 gauge needle. The cells, pooled from two animals, were counted using a hemocytometer, diluted (RPMI media) to a concentration of 2×10^6 cells/ml and 0.5 ml was then re-injected into each of two BDF1 mice. Remaining cells were washed and placed into a DMSO containing media and frozen (in freezer packs that cool at a defined rate). This process was repeated weekly over a […]. Cells used for anti-tumor studies were collected from the third passage to the 20th passage. After the 20th passage the cells were no longer used for experimental studies. Newly established cells were derived from the frozen cells prepared as described above.
(§3) Groups (five mice per group) of female BDF1 mice (Charles Rivers, Canada) were injected (intraperitoneal) with 10^6 P388 cells (as described above). One day after tumor cell inoculation, the mice were given a bolus intravenous injection of indicated drug via the lateral tail vein. Control groups were injected with saline. Free drug samples were prepared on the day of injection such that the final concentrations were sufficient to deliver the indicated drug dose in a volume of 200 μl. All dilutions were made using 0.9% Sodium Chloride Injection USP. The mice were briefly (less than 30 sec.) restrained during intravenous injections. Dilation of the vein was achieved by holding the animals under a heat lamp for a period of between five and ten minutes. Following administration of the test articles, animals were weighed daily for fourteen days and monitored for signs of stress twice daily for the first 14 days (once daily on weekends) and once daily for the remainder of the study. Severely distressed animals were terminated by CO2 asphyxiation and the time of death was recorded to occur on the following day. Although complete dose titrations were completed for each drug, the data shown in FIG. 6 is that obtained after administration of the free drugs at their maximum tolerated dose. This was 3, 40 and 40 mg/kg for vincristine, Navelbine™ and AHVB, respectively.
(§4) After treating mice (bearing the P388 tumor) with a single dose of the indicated drug, animals were examined twice daily for the first 14 days (once daily on weekends). Weight gain in the control is an indication of tumor progression.
(§5) The studies were conducted as described for FIG. 6. […]

[3] = system: C-4 Human Cervical Carcinoma; experiment: C-4 (cervical) solid tumor model; assay type: in vivo, Rag-2 mice
Method: Cultures of C-4 Human Cervical Carcinoma cells are available from the British Columbia Cancer Research Centre. Cells were injected subcutaneously twice into mature male Rag-2 mice (24 mice, 1×10^6 cells/mouse) using a 26-gauge needle. The C-4 cells were suspended in a Hank's Balanced Salt Solution without calcium. Tumors were allowed to form in the mice for 31 days.
When the tumors were well established, four separate groups of mice, were selected for administration of the three test articles (i.e. one group for each test article of AHVB bisulphate, AHVB ditartrate, and Navelbine™) and one control.
AHVB bisulphate and ditartrate, and Navelbine™ were solubilized using 5% dextrose saturated with Argon. These articles were administered at doses of 20 mg/Kg intravenously. Any dose dilutions were made with 5% dextrose.
The articles were administered intravenously on the days 1, 5 and 9, as were controls of 5% dextrose. Body weights and tumor measurements with calipers were taken regularly over the period of the study of 69 days.
Following administration of the test articles, the animals; weight and tumor size (using calipers) were determined regularly over the period of the study. If the tumor size reached I gram in weight or the tumor started to ulcerate, the animals were sacrificed (by carbon dioxide inhalation) and subjected to necropsy. Animals were also monitored at least daily for signs of stress for the full length of the study. Animals manifesting severe symptoms of stress (rapid weight loss, panting, hunched posture, scruffy coat) were also sacrificed and a necropsy performed.
The results of the efficacy studies are given in Table 3 and present averages of data from 6 or fewer animals. Each mouse in a given article group had two subcutaneous tumors on its back. Each tumor was measured in length and width and the volume of each tumor was calculated by […]. The two tumor volumes were then averaged. The volume averages of all the mice/group were averaged to yield a mean for each single date point. The calculation was performed each day the tumors were measured.

[4] = system: advanced refractory solid tumors; experiment: Phase I clinical trial, disease response; assay type: in vivo, human patients
Method: Patients had normal bone marrow, hepatic and renal function. Twenty-four patients were treated with escalating doses of AHVB, administered as a 1 hour infusion every 3 weeks. The 24 patients comprised 12 male and 12 female patients with a median age of 60 years (range 27-75 years). Twenty-one of the 24 patients were evaluable. Diagnoses were non-small cell lung cancer (NSCLC), colorectal cancer, soft tissue sarcoma, pancreatic cancer, breast cancer and metastatic neuroendocrine cancer in 11, 5, 4, 1, 1, and 1 patient(s), respectively. […] A total of 51 courses were administered at doses of 2.5, 5, 10,16.5, 21,25 and 30 mg/m^2 to 1,3, 1,3, 6, 6 and 1 patient(s), respectively (see Table 4).

[5] = Murine P388 model in BDF1 mice; assay type: in vivo; conditions: female, mouse, in vivo; single bolus intravenous injection, BDF1 mice bearing P388 tumors; read-out: maximum tolerated dose
Method: as §1, §2, §3, §4, §5

[6] = 20 mg/kg intravenously on days 1, 5, 9

CCC1=C[C@H]2CN(CCc3c([nH]c4ccccc34)[C@@](C(=O)OC)(c3cc4c(cc3OC)N(C)[C@H]3[C@@](O)(C(=O)OC)[C@H](OC(C)=O)[C@]5(CC)C=CCN6CC[C@]43[C@@H]65)C2)C1 [AHVB, 3′,4′-anhydrovinblastine]
IC50 [1]: 20 nM
onset of acute toxic reaction at maximum tolerated dose ([2]; 40 mg/kg IV): ≤ 1 h
anti-tumor activity, number of long term survivors (>60 days) ([2]; 40 mg/kg single IV injection vs vincristine 3 mg/kg, FIG. 6): significantly better than that observed for vincristine
times less toxic (on a weight basis) than vincristine ([2]; mouse, in vivo): approximately 10 times
toxicity (vinca alkaloid induced weight loss) ([2]; single IV injection at maximum tolerated dose, 40 mg/kg, FIG. 4): least toxic of the three drugs evaluated
maximum tolerated dose ([2]; single bolus intravenous injection, BDF1 mice bearing P388 tumors): 40 mg/kg
activity compared with vincristine and vinorelbine ([3]; human tumor xenografts of cervical cancer, equitoxic doses): superior activity to that of both vincristine and vinorelbine
stable disease ([4]; metastatic NSCLC, 21 and 25 mg/m^2): three patients
stable disease ([4]; metastatic sarcoma to lungs, 10 mg/M^2): one patient

CCC1=C[C@@H]2CN(C1)Cc1c([nH]c3ccccc13)[C@@](C(=O)OC)(c1cc3c(cc1OC)N(C)[C@H]1[C@@](O)(C(=O)OC)[C@H](OC(C)=O)[C@]4(CC)C=CCN5CC[C@]31[C@@H]54)C2 [Navelbine, 3′,4′-didehydro-4′-deoxy-C′-norvincaleukoblastine-di-L-tartrate]
MTD at 14 days [5]: 40 mg/kg
% Delay In Growth (Dig) [3, 6]: 84%
Initial Growth (Day) Of Expt. [3, 6]: 29 days
Initial Growth (Day) Total [3, 6]: 59 days
day tumors reached observable 'growth threshold' [3, 6]: 41 days

CC[C@]1(O)C[C@H]2CN(CCc3c([nH]c4ccccc34)[C@@](C(=O)OC)(c3cc4c(cc3OC)N(C=O)[C@H]3[C@@](O)(C(=O)OC)[C@H](OC(C)=O)[C@]5(CC)C=CCN6CC[C@]43[C@@H]65)C2)C1 [Vincristine, Sulfate of 22-oxovincaleukoblastine]
MTD at 14 days [5]: 3 mg/kg
